Values after ≈ are worked out from the molar mass of the structure shown. Values joined by “and” are separate entries in the source; they are usually repeats but may differ in a detail not shown here. Identical values can stand only once. Like-named read-outs stand apart in the source and are kept apart here.
Tests used:
[1] = tested on: Venezuelan equine encephalitis virus; details: Vero; 50% inhibition
humoral immune response = details: tumor bearing animals; cited from earlier work
RNA and DNA viruses = format: cell-based; details: most viruses of Table 3
Yellow fever virus [2] = experiment: microbe, parasite or virus in culture; details: Vero
vaccinia virus = details: for Vaccinia Lesion Score: per monkey
HCMV strain AD 169 = experiment: Rabbit HCMV efficacy and time course recovery (Example 6); details: for Chorioretinal score (C) / Vitreitis score (V): sham-inoculated S1-S5, dose as groups 1-5
Yellow fever virus [3] = details: Vero
herpesvirus = details: less effective by a factor; cited from earlier work
HCMV strain AD169 = format: cell-based
[4] = tested on: L-aspartic acid transcarbamylase (ATCase); details: cited from earlier work
Sandfly fever virus [5] = experiment: microbe, parasite or virus in culture; details: sandfly fever Sicilian virus, Vero
in vitro = details: human, cem cells
CMV = experiment: In vitro antiviral assay; format: cell-based
[6] = tested on: Japanese encephalitis virus; details: Vero; 50% inhibition
[7] = used alone; cited from earlier work
[8] = Cytotoxicity in Hep-2 cells; details: human
Varicella = experiment: In vitro antiviral assay; format: cell-based; details: Vero
Vero cells = details: uninfected
Coxsackie B3 = experiment: In vitro antiviral assay; format: cell-based
Sandfly fever virus [9] = details: Vero
[10] = day 8, PALA 125 mg/kg day 1 & 7
[11] = day 10, PALA 125 mg/kg day 1 & 7
[12] = day 10, PALA 50, rifampicin 10 mg/kg/d or both
[13] = day 13, PALA 125 mg/kg day 1 & 7
[14] = day 13, PALA 50, rifampicin 10 mg/kg/d or both
[15] = day 3, PALA 50, DHPG 10 or both, mg/kg/d
[16] = day 4, PALA 50, DHPG 10 or both, mg/kg/d
[17] = day 5, PALA 50, DHPG 10 or both, mg/kg/d
[18] = day 6, PALA 50, DHPG 10 or both, mg/kg/d

For `O=C(O)C[C@H](NC(=O)CP(=O)(O)O)C(=O)O` [PALA], the “TI (TC50/IC50)” value [1] is given as 0.00, the “effect on humoral immune response” value (humoral immune response) is given as “does not appear to significantly alter humoral immune response” and the therapeutic index (RNA and DNA viruses) is given as “about 32”. For the same compound, the IC50 (Yellow fever virus [2]) was 16.6 µg/mL (≈ 65.1 µM), the gross pathology (vaccinia virus; PALA 125 mg/kg i.v. bolus) was “dark red discoloration of the liver” and the “lesion development” value (vaccinia virus; PALA 125 mg/kg, days 1 and 7) was “greater than what was seen in monkeys treated daily with PALA at a lower dose”. For the same compound, the “virus titers in skin” value (vaccinia virus; PALA 125 mg/kg, days 1 and 7) was “Higher titers”, the “lesion development” value (vaccinia virus; PALA 50, rifampicin 10 or both, mg/kg/day i.v.) was “effective in reducing lesion development and size” and the Weight (vaccinia virus; day 0, PALA 125 mg/kg day 1 & 7) was 3.2 kg and 3.4 kg and 4.4 kg. The Weight (vaccinia virus; day 0, PALA 50, rifampicin 10 mg/kg/d or both) was 2.4 kg and 3.4 kg and 2.6 kg, the “Vaccinia Lesion Score, group mean” value (vaccinia virus; day 3, PALA 125 mg/kg day 1 & 7) was 0.5 and the “Vaccinia Lesion Score, group mean” value (vaccinia virus; day 3, PALA 50, rifampicin 10 mg/kg/d or both) was 0.1. For the same compound, the “Vaccinia Lesion Score, group mean” value (vaccinia virus; day 6, PALA 125 mg/kg day 1 & 7) was 0.7, the “Vaccinia Lesion Score, group mean” value (vaccinia virus; day 6, PALA 50, rifampicin 10 mg/kg/d or both) was 0.6 and the “Vaccinia Lesion Score, group mean” value (vaccinia virus; day 7, PALA 125 mg/kg day 1 & 7) was 0.9. The “Vaccinia Lesion Score, group mean” value (vaccinia virus; day 7, PALA 50, rifampicin 10 mg/kg/d or both) was 0.5, the “Vaccinia Lesion Score, group mean” value (vaccinia virus; [10]) was 1.3 and the “Vaccinia Lesion Score” value (vaccinia virus; [10]) was 0.7 and 1.8. The “Vaccinia Lesion Score, group mean” value (vaccinia virus; day 8, PALA 50, rifampicin 10 mg/kg/d or both) was 0.5, the “Vaccinia Lesion Score, group mean” value (vaccinia virus; day 9, PALA 125 mg/kg day 1 & 7) was 1.2 and the “Vaccinia Lesion Score, group mean” value (vaccinia virus; day 9, PALA 50, rifampicin 10 mg/kg/d or both) was 0.3. For the same compound, the “Vaccinia Lesion Score, group mean” value (vaccinia virus; [11]) was 0, the “Vaccinia Lesion Score” value (vaccinia virus; [11]) was 0 and the “Vaccinia Lesion Score, group mean” value (vaccinia virus; [12]) was 0. For the same compound, the Weight (vaccinia virus; [12]) was 2.2 kg and 3.2 kg and 2.4 kg, the “Vaccinia Lesion Score” value (vaccinia virus; [12]) was 0 and the “Vaccinia Lesion Score, group mean” value (vaccinia virus; [13]) was 0.5. The “Vaccinia Lesion Score” value (vaccinia virus; [13]) was 0.3 and 0.7, the “Vaccinia Lesion Score, group mean” value (vaccinia virus; [14]) was 0 and the “Vaccinia Lesion Score” value (vaccinia virus; [14]) was 0. For the same compound, the Weight (vaccinia virus; day 14, PALA 125 mg/kg day 1 & 7) was 3.2 kg and 4.4 kg, the Weight (vaccinia virus; day 14, PALA 50, rifampicin 10 mg/kg/d or both) was 2.0 kg and 3.2 kg and 2.4 kg and the Weight (vaccinia virus; day 21, PALA 125 mg/kg day 1 & 7) was 3.4 kg and 4.2 kg. The Weight (vaccinia virus; day 21, PALA 50, rifampicin 10 mg/kg/d or both) was 2.0 kg and 3.4 kg and 2.6 kg, the signs of toxicity (vaccinia virus; except one monkey at PALA 125 mg/kg bolus) was “No appreciable signs of toxicity” and the “Titer of vaccinia virus in skin biopsy” value (vaccinia virus; head prints day 6, PALA 125 mg/kg day 1 & 7) was 1.3 × 10^5 PFU/ml and 1.8 × 10^10 PFU/ml. The “HCMV recovery” value (HCMV strain AD 169; PALA 50, DHPG 10 or both, mg/kg/day i.v.) was “better than recovery in placebo treated eyes”, the “HCMV Recovered, OD” value (HCMV strain AD 169; [15]) was “+” and the “HCMV Recovered, OS” value (HCMV strain AD 169; [15]) was “+”. The “HCMV Titer, OD” value (HCMV strain AD 169; [15]) was 10^4 pfu, the “HCMV Titer, OS” value (HCMV strain AD 169; [15]) was 10^4 pfu and the HCMV recovery frequency (HCMV strain AD 169; [15]) was 2/2. The “Chorioretinal score (C)” value (HCMV strain AD 169; day 3) was 0, the “Vitreitis score (V)” value (HCMV strain AD 169; day 3) was 0 and the “HCMV Recovered, OD” value (HCMV strain AD 169; [16]) was “+”. For the same compound, the “HCMV Recovered, OS” value (HCMV strain AD 169; [16]) was “+”, the “HCMV Titer, OD” value (HCMV strain AD 169; [16]) was 10^3 pfu and the “HCMV Titer, OS” value (HCMV strain AD 169; [16]) was 10^2 pfu. The HCMV recovery frequency (HCMV strain AD 169; [16]) was 2/2, the “Chorioretinal score (C)” value (HCMV strain AD 169; day 4) was 0 and the “Vitreitis score (V)” value (HCMV strain AD 169; day 4) was 0. The “HCMV Titer, OD” value (HCMV strain AD 169; day 5, PALA 50 mg/kg/d) was 10^1 pfu, the “HCMV Titer, OS” value (HCMV strain AD 169; day 5, PALA 50 mg/kg/d) was 10^2 pfu and the “HCMV Recovered, OD” value (HCMV strain AD 169; [17]) was “+”. The “HCMV Recovered, OS” value (HCMV strain AD 169; [17]) was “+”, the HCMV recovery frequency (HCMV strain AD 169; [17]) was 2/2 and the “Chorioretinal score (C)” value (HCMV strain AD 169; day 5) was 0. For the same compound, the “Vitreitis score (V)” value (HCMV strain AD 169; day 5) was 0, the “HCMV Titer, OS” value (HCMV strain AD 169; day 6, PALA 50 mg/kg/d) was 10^1 pfu and the “HCMV Recovered, OD” value (HCMV strain AD 169; [18]) was “+”. For the same compound, the “HCMV Recovered, OS” value (HCMV strain AD 169; [18]) was “+”, the HCMV recovery frequency (HCMV strain AD 169; [18]) was 2/2 and the “HCMV Titer, OD” value (HCMV strain AD 169; day 6, PALA 50 or DHPG 10 mg/kg/d) was 10^1 pfu. For the same compound, the “Chorioretinal score (C)” value (HCMV strain AD 169; day 6) was 0, the “Vitreitis score (V)” value (HCMV strain AD 169; day 6) was 0 and the “Chorioretinal score (C)” value (HCMV strain AD 169; day 7) was 0. For the same compound, the “Vitreitis score (V)” value (HCMV strain AD 169; day 7) was 0, the “Chorioretinal score (C)” value (HCMV strain AD 169; day 10) was 0 and the “Vitreitis score (V)” value (HCMV strain AD 169; day 10) was 0. The “vitreitis / chorioretinal disease” value (HCMV strain AD 169; sham-inoculated S1, PALA 50 mg/kg/day) was “did not develop any vitreitis nor chorioretinal disease”, the IC50 (Yellow fever virus [3]) was 13.4 µg/mL (≈ 52.5 µM) and the “TI (TC50/IC50)” value (Yellow fever virus [3]; 50% inhibition) was > 19.22 and > 23.82. For the same compound, the “TI(95)” value (Yellow fever virus [3]; 95% inhibition) was > 10.68 and > 10.38, the “antiherpes effectiveness relative to parent PAA” value (herpesvirus) was “over 200” and the log reduction at 10 µg/mL (HCMV strain AD169; Human betaherpesvirus 5, AD169, Hs68, read-out: viral yield reduction) was 2 to 3. For the same compound, the “reduction of HCMV titer” value (HCMV strain AD169; PALA 3 μg/ml, DHPG 19 μg/ml) was “effective in reducing HCMV titers”, the “Cell associated HCMV titer” value (HCMV strain AD169; day 0 PI) was 10^2 PFU/ml and the “Cell free (supernatant) HCMV titer” value (HCMV strain AD169; day 0 PI) was 10^5 PFU/ml. For the same compound, the “Cell associated HCMV titer” value (HCMV strain AD169; day 1 PI) was 10^3 PFU/ml, the “Cell free (supernatant) HCMV titer” value (HCMV strain AD169; day 1 PI) was 10^1 PFU/ml and the “Cell associated HCMV titer” value (HCMV strain AD169; day 2 PI) was 10^1 PFU/ml. The “Cell free (supernatant) HCMV titer” value (HCMV strain AD169; day 2 PI) was 10^1 PFU/ml, the “Cell associated HCMV titer” value (HCMV strain AD169; day 3 PI) was 10^1 PFU/ml and the “Cell free (supernatant) HCMV titer” value (HCMV strain AD169; day 3 PI) was 10^3 PFU/ml. The “Cell associated HCMV titer” value (HCMV strain AD169; day 4 PI) was 10^1 PFU/ml, the “Cell free (supernatant) HCMV titer” value (HCMV strain AD169; day 4 PI) was 10^2 PFU/ml and the “Cell associated HCMV titer” value (HCMV strain AD169; day 5 PI) was 10^1 PFU/ml. For the same compound, the “Cell free (supernatant) HCMV titer” value (HCMV strain AD169; day 5 PI) was 10^1 PFU/ml, the “Cell associated HCMV titer” value (HCMV strain AD169; day 6 PI) was 10^1 PFU/ml and the “Cell associated HCMV titer” value (HCMV strain AD169; day 7 PI) was 0 PFU/ml. For the same compound, the “Ka, avidity relative to carbamyl phosphate” value [4] was 1000 ×, the IC50 (Sandfly fever virus [5]) was 20.9 µg/mL (≈ 81.9 µM) and the CC50 (in vitro) was 60 µg/mL (≈ 235 µM). For the same compound, the TI (CMV; HFF) was 32.0, the IC50 (CMV; Human betaherpesvirus 5, HFF) was 10 µg/mL (≈ 39.2 µM) and the “TI (TC50/IC50)” value [6] was > 18.59 and > 18.80. The “clinical efficacy in cancer” value [7] was “relatively nonefficacious”, the CC50 [8] was greater than 320 µg/mL and the IC50 (Varicella) was 10 µg/mL (≈ 39.2 µM). It also gave a TI (Varicella) of 32.0, a TC50 (Vero cells) greater than 320 µg/mL and an IC50 (Coxsackie B3; Enterovirus B, B3, Vero) of roughly 33 µg/mL (≈ 129 µM). For the same compound, the TI (Coxsackie B3; Vero) was 9.7, the IC50 (Sandfly fever virus [9]) was 14.9 µg/mL (≈ 58.4 µM) and the “TI (TC50/IC50)” value (Sandfly fever virus [9]; 50% inhibition) was > 15.32 and > 21.54.

From patent US5491135A (priority 1993, dated 1996)
